According to the pKa sets of Baltruschat and Czodrowski (2020):
Several values for one entry are separate records, joined by “and”; a condition that tells them apart may be missing. Equal entries are not always repeated.

Conditions: acidic group

SMILES | pKa
O=C(O)c1cc(-c2ccccc2)oc(=O)c1 | 3.3
O=c1oc2c(O)c(O)cc3c(=O)oc4c(O)c(O)cc1c4c23 | 6.59
Cc1ccc([Se]CC(=O)O)cc1 | 3.86
Nc1nnnn1CC(=O)O | 2.38
Oc1ccc(/C=N/c2ncc3nc[nH]c3n2)cc1 | 8.62
O=S(=O)(Nc1ncccn1)c1ccccc1 | 5.91
Cc1cc(C=O)c(O)c(C=O)c1 | 6.2
CCC[NH+](CCC)CCCNC(=O)/C=N/O | 8.73
O=C(O)CCC(=O)c1ccc2ccccc2c1 | 4.96
C[N+](C)(C)c1ccccc1O | 7.46
Nc1ccc(C(=O)O)cc1 | 4.84
Oc1nc2ccccc2c[nH+]1 | 1.3
CCCCc1c(O)nc(NCC)[nH+]c1C | 5.04
CC(C)CN[N+](=O)[O-] | 6.38
O=C(O)c1ccc2[nH]ccc2c1 | 4.1
C=C(C)[C@@H]1CN(C(C)=O)[C@H](C(=O)OC)[C@@H]1CC(=O)O | 4.6
CN(C)/C=N/c1ccc(O)cc1 | 10.5
Oc1cc(Cl)cc(Cl)c1 | 8.07
Oc1ccccc1-c1ccccc1 | 9.99
O=c1oc2cc(O)ccc2cc1-c1nc2ccccc2o1 | 6.84
CCc1cc(Cl)c(OC)c(C(=O)NC[C@H]2CCC[NH+]2CC)c1O | 6.91
Oc1cccc2c1-c1cccc(O)c1-2 | 8.35
Nc1nc(O)[nH+]c2nc[nH]c12 | 4.51
O/N=C1/CCCC(=N\O)/C1=N/O | 8.21 and 8.12
O=c1cccc([O-])cc1O | 9.52
CC/C=C/CC(=O)O | 4.52
O=C1C=Cc2ccccc2/C1=N\O | 7.77

SMILES | pKa
O=C(O)CC[C@@H]1NC(=O)CNC1=O | 4.36
CN(C)c1cccc2c(S(=O)(=O)NCC(=O)O)cccc12 | 4.4
COC(=O)[n+]1ccc(N)cc1 | 9.15
c1ccc(CSc2nc(SCc3ccccc3)c(-c3ccccc3)[nH]2)cc1 | 10.9
O=c1ccc2cc(O)c(O)cc2o1 | 7.63
O=C1CCC([O-])=C1O | 12.9
CC(=O)c1ccc(O)c2ncccc12 | 7.75
O=c1[nH]c(=O)c2ncn([C@H]3O[C@@H](CO)[C@H](O)[C@@H]3O)c2[nH]1 | 5.72
Cc1cc([C@@H]([NH3+])CO)c(O)c([C@@H]([NH3+])CO)c1 | 6.3
CCNC(=O)/C=C(/[70SH])c1ccccc1 | 4.73
OC(O)c1ccccc1 | 12.4
N#Cc1cccc(O)c1 | 8.63
OC(CS)CS | 9.17
COc1ccc(C(=O)c2cc[nH]n2)cc1 | 12.1
CC(C)(OO)c1ccccc1 | 12.6
CC(C(=O)c1ccccc1)[n+]1ccccc1 (stereo unspecified) | 11.5
O=[N+]([O-])CSc1ccccc1 | 6.67
Cc1cc(C(=O)O)c(C)o1 | 4.64
Cn1c[nH+]c(C(=O)O)c1C(=O)O | -0.88
Cc1cc(C[NH3+])c(O)c(C[NH3+])c1 | 7
O=C(O)Cc1cccs1 | 3.85
C/C(=N\O)C(=O)[N-]O | 11
Oc1ccccc1O | 9.33
Cc1ccc(S(=O)(=O)N[C@@H](CCC(N)=O)C(=O)[O-])cc1 | 11.8
OC[C@@H]1O[C@H]([n+]2ccc(NO)nc2O)[C@@H](O)[C@H]1O | 2.26
CC[NH2+]CC[SeH] | 5.04
CN1C(=O)N/C(=C\c2ccccc2)C1=O | 9.6

SMILES | pKa
CNc1nc(O)[n+]([C@@H]2C[C@@H](O)[C@H](CO)O2)cc1C | 4.04
Oc1c(Cc2ccccc2)c(-c2ccccc2)nn1-c1ccccc1 | 7.6
C[S+](C)c1cccc(O)c1 | 7.67
SCc1ccccc1 | 9.43
O=C(O)/C(I)=C/c1ccccc1 | 3.3
CC(=O)N1CS(=O)(=O)C[C@H]1C(=O)O | 2.23
O=C([O-])[C@@H]1CC[C@H](C(=O)O)C1 | 5.52
Cc1cc(O)c(C(C)C)cc1Nc1ccc(O)cc1 | 9.85
CC(C)P(=O)(O)C(C)C | 3.56
C[Si](C)(C)c1cccc(C(=O)O)c1 | 4.24
Cn1c([O-])nc(=O)c2[nH]cnc21 | 11.7
ONc1ccnc2ccccc12 | 6.76
Cc1nc2ccccc2[nH+]c1O | 0.48
Cc1csc(-c2cccc(NS(=O)(=O)c3ccc(N)cc3)c2)n1 | 9.2
OC(O)=C1c2ccccc2-c2ccccc21 | 2.01
O=[N+]([O-])c1ccc(/C=N/O)cc1 | 10
COc1ccc(C(=S)Nc2ccc(C)cc2)cc1 | 11.8
O=Cc1cc([N+](=O)[O-])cc(Br)c1O | 3.48
NC1=[NH+][C@@H](CC(=O)O)C(=O)N1CCCC([NH3+])C(=O)O (stereo partly specified) | 1.86
O=C(Cc1cccnc1)c1ccccc1 | 13.7
Cn1ccnc1CS | 8.88
O=C([O-])C[NH+](CCNS(=O)(=O)c1ccc(CCBr)cc1)CC(=O)[O-] | 7.75
OCCC[n+]1cc(Br)c2ccccc2c1 | 12
Cc1cc(O)ccc1/N=N/c1ccc2c(c1)Cc1ccccc1-2 | 10.3
CCOC(=O)C(Cc1cccc(C)c1)C(C)=O (stereo unspecified) | 11.9

Same assay, conditions: basic group

SMILES | pKa
ClC1CN2CCC1CC2 (stereo unspecified) | 8.79
CCCNCCC | 11
Cc1n[nH]c2ccc(N)cc12 | 5.25
CCC(=O)C(C[C@H](C)N1CCOCC1)(c1ccccc1)c1ccccc1 | 6.73
NNCCc1ccccc1 | 7.25
CCC(CO)NCl (stereo unspecified) | 1.55
C=CCN(C)C | 8.72
CCN(CC)c1ccc(C)cc1 | 7.18
CC(C)(N)C(C)(C)N | 10.1
Cc1[nH+]c2cc(N)ccc2n1C | 3.38
C#C[C@]1(O)C[C@@H](C)N[C@H]2CCCC[C@@H]21 | 9.29
CN1C[C@H](C(=O)[O-])C=C2c3cccc4[nH]cc(c34)C[C@@H]21 | 8.49
CCCc1nc2cc(OCC)ccc2[nH]1 | 6.12
c1ccc(-c2[nH]cc[nH+]2)nc1 | 0.6
Oc1ccc(/C=N/c2ncc3nc[nH]c3n2)cc1 | 3.27
O=S(=O)(Nc1ncccn1)c1ccccc1 | 0.15
Cc1ccccc1/C(=N/CCC[NH+](C)C)c1ccccc1 | 4.29
c1ccc(Cc2cc(-c3ccccc3)nnc2NCCN2CCOCC2)cc1 | 6.95
Nc1c([N+](=O)[O-])ccc2ccccc12 | -1.6
COC(=O)c1ncccn1 | -0.68
CC(C)([Se-])CN | 10.9
C=C(C)[C@@H]1CN[C@H](C(=O)[O-])[C@@H]1CC(=O)[O-] | 10.2
Nc1ncccc1C(=O)[O-] | 6.59

SMILES | pKa
NCCC[NH2+]CCO | 8.19
NCCCNCCO | 10.3
CC1(N)C[C@]1(C)N (stereo partly specified) | 9.03
[O-]c1ccnc[nH+]1 | 1.77
CC/C=C/CC1=NC(C(=O)[O-])[C@@H]2SC(C)(C)C(C(=O)[O-])N12 (stereo partly specified) | 7.8
Cc1ccc(N)cc1C[NH3+] | 4.67
Nc1ccc(C(=O)O)cc1 | 2.41
Oc1ccccc1CN1CCCNCCC[NH2+]CCC1 | 6.64
Nc1ncc(Br)s1 | 3.61
CC(C)(C)c1ccc(N)cc1 | 4.95
c1ccc(-c2cccnc2)nc1 | 4.42
CN(C)/C=N/c1ccc(O)cc1 | 8.28
Cn1ccnc1-c1[nH+]ccn1C | 0.5
CCOCCn1c(N2CCCN(CCCCn3cccn3)CC2)nc2ccccc21 | 8.5
[NH3+]CCN1CCOCC1 | 4.84
NCc1cc(N)cc(Cl)c1 | 9.54
CCOc1ccc2nc(/C=C/C=C/c3ccccc3)cc(N)c2c1 | 9.5
CN(C)c1ccncn1 | 6.35
CCCCCCCCCCNCCC(=O)[O-] | 10.6
c1ccc(CSc2nc(SCc3ccccc3)c(-c3ccccc3)[nH]2)cc1 | 2.7
C1CCN(CCCN2CCCC2)C1 | 10
CCn1cnc2ccccc21 | 5.66
O=C([O-])c1ccc2ncccc2c1 | 4.82

SMILES | pKa
c1ccc(Oc2ccccn2)cc1 | 2.35
CC(=O)c1ccc(O)c2ncccc12 | 4
COc1ccc(-c2cn3ccnc3[nH]2)c(OC)c1 | 6.76
C[n+]1c([O-])ccnc1[O-] | 9.94
COc1cnccc1C=O | 4.45
C[C@@H]1C[NH2+][C@@H](C)CN1 | 5.29
CC1=C(CC(C)NCC(O)c2ccc([N+](=O)[O-])cc2)CCC1(C)C (stereo unspecified) | 8.36
O=C(Cc1ccccc1)C(CN1CCOCC1)c1ccccc1 (stereo unspecified) | 6.17
C#CCCCCN | 10.5
CSc1ccc2ccccc2n1 | 3.71
CN(C)CCCN=C(c1ccccc1)c1ccccc1 | 9.4
O=C(CCl)CCl | 11
CN1[C@@H]2C[C@@H]3C[C@H]1[C@@H](O)[C@H]2O3 | 8.2
Cn1cnc2c([O-])ncnc21 | 9.11
Cc1ccnc2ccccc12 | 5.51
Nc1cccc2c([N+](=O)[O-])cccc12 | 2.8
CC1=CSC2=NCCN12 | 9.81
c1cc(-c2cc[nH+]cc2)ccn1 | 3.17
CNNC1CC[NH+](C)CC1 | 5.95
CN(C)CCCCCCNC(=O)/C=N/[O-] | 10.4
Nc1ccc2ccccc2c1[N+](=O)[O-] | -0.92
CC(CN1c2ccccc2Sc2ccccc21)N(C)C (stereo unspecified) | 8.65
CCn1cncn1 | 2.39

SMILES | pKa
c1nc(Cc2c[nH]c(Cc3[nH]cc[nH+]3)n2)c[nH]1 | 6.15
O=[N+]([O-])c1cccc2nccc(NCCCO)c12 | 7.06
COc1ccc(N)cc1C(=O)N[C@@H]1C[C@H]2CC[C@@H](C1)N2Cc1ccccc1 | 8.86
CC1C(=O)OC(C(C)(C)C)C1=O (stereo unspecified) | 4.84
NC(Cc1cccnc1)C(=O)[O-] (stereo unspecified) | 9.26
[S-]c1cnc2ccccc2[nH+]1 | -1.11
CNc1cc[nH+]c([O-])n1 | 4.55
NNCCCc1ccccc1 | 7.2
Nc1n[nH]c2ccccc12 | 3.15
c1ccc(C2=NCCN2)nc1 | 8.98
Cc1cnccn1 | 1.42
[O-]c1ccnc([O-])c1 | 13
Nc1ccc2c(c1O)Cc1ccccc1-2 | 4.82
CC[C@H]1CN2CC[C@@H]1C[C@H]2[C@H](O)c1ccnc2ccc(OC)cc12 | 8.67
CSc1cccc(N)c1 | 4.05
O=C(Cc1cccnc1)c1ccccc1 | 4.87
Cn1ccnc1CS | 6.31
FC(F)(F)c1cccc2ncccc12 | 3.09
Cc1cncc[nH+]1 | -4.89
COc1ccc(N)cc1CN | 9.77
Cc1ccc(S(=O)(=O)[N-]CCC(=N)N)cc1 | 10.8
Cc1ccc(CCN)cc1 | 9.78
CO[C@H]1C=CC2=CCN3CC[C@H](CO)/C(=C\CO)[C@]23C1 | 7.79
